Reference: ChEMBL document CHEMBL4371087, “Development of novel liver X receptor modulators based on a 1,2,4-triazole scaffold” (Bioorg Med Chem Lett, 2019)
The source made the active and inactive calls. The calls are words filed in the database; no cut-off is given here.

How the values were obtained:
Type in all cases: cell-based
[1] = molecular target: T1, Oxysterols receptor LXR-alpha (Homo sapiens) (UniProt Q13133); test: Agonist activity at full length human LXRalpha expressed in HEK293 cells harboring LXRE-Luc promoter at 10 uM by luciferase reporter gene assay relative to T0901317
T1 sequence (whole entry): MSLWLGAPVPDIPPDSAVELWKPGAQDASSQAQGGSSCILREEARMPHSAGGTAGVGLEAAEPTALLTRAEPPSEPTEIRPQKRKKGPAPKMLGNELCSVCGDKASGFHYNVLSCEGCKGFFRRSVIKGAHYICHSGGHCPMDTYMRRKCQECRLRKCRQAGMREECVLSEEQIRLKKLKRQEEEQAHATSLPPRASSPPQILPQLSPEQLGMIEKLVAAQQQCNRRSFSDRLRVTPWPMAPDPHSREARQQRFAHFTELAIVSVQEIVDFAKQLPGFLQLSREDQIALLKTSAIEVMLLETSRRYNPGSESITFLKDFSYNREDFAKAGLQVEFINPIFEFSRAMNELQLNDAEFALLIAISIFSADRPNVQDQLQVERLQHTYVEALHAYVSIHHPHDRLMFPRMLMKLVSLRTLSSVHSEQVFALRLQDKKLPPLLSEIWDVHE

[2] = molecular target: T2, Oxysterols receptor LXR-beta (Homo sapiens, UniProt P55055); test: Agonist activity at full length human LXRbeta expressed in HEK293 cells harboring LXRE-Luc promoter by luciferase reporter gene assay
T2 sequence (P55055 whole entry): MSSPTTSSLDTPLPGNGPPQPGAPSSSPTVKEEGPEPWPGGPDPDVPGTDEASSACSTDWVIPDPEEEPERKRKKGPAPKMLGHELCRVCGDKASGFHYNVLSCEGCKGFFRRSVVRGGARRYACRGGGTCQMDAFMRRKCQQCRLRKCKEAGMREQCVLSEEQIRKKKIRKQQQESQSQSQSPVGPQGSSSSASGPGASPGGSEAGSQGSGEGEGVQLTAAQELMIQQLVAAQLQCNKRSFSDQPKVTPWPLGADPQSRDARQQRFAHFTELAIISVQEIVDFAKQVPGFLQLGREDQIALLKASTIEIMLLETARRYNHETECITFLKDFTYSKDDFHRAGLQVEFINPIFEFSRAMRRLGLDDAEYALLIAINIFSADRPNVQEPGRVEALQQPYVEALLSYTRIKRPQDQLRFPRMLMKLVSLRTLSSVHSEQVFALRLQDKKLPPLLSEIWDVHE

[3] = molecular target: T3, Oxysterols receptor LXR-alpha (Homo sapiens, UniProt Q13133); test: Agonist activity at full length human LXRalpha expressed in HEK293 cells harboring LXRE-Luc promoter by luciferase reporter gene assay
T3 sequence (Q13133 whole entry): T1 sequence (whole entry)

[4] = molecular target: T4, Oxysterols receptor LXR-beta (Homo sapiens) (UniProt P55055); test: Agonist activity at full length human LXRbeta expressed in HEK293 cells harboring LXRE-Luc promoter at 10 uM by luciferase reporter gene assay relative to T0901317
T4 sequence (whole entry): T2 sequence (P55055 whole entry)

Homo sapiens = organism: Homo sapiens; test: Selectivity ratio of EC50 for full length human LXRalpha expressed in HEK293 cells to EC50 for full length human LXRbeta expressed in HEK293 cells

| Emax [1] | EC50 [2] [nM] | EC50 [3] [nM] | Emax [4] | SMILES | Ratio EC50 (Homo sapiens) |
| --- | --- | --- | --- | --- | --- |
| 50% | 1420 | 701 | 68% | CC(=O)n1nc(Cc2ccccc2)nc1-c1ccccc1 | 0.49 |
| inactive | – | – | inactive | COc1cccc(-c2nc(-c3ccccc3)n(S(=O)(=O)c3ccc(C)cc3)n2)c1 | – |
| 51% | 245 | 309 | 60% | Clc1ccc(-c2n[nH]c(-c3ccccc3)n2)cc1 | 1.26 |
| 62% | 109 | 115 | 78% | COc1cccc(-c2nc(-c3ccccc3)n(C(C)=O)n2)c1 | 1.06 |
| inactive | – | – | inactive | c1ccc(-c2nc(-c3ccccc3)n(C3CC3)n2)cc1 | – |
| inactive | – | – | inactive | c1ccc(-c2n[nH]c(-c3cccnc3)n2)cc1 | – |
| 58% | – | 2180 | inactive | c1ccc(Cn2nc(-c3ccccc3)nc2-c2ccccc2)cc1 | – |
| 60% | – | 2290 | inactive | CCn1nc(-c2ccc(Cl)cc2)nc1-c1ccccc1 | – |
| 46% | 966 | 570 | 61% | Clc1ccccc1-c1n[nH]c(Cc2ccccc2)n1 | 0.59 |
| 45% | 5650 | 2240 | 71% | CCn1nc(-c2ccc(Br)cc2)nc1-c1ccccc1 | 0.4 |
| 78% | 712 | 5030 | 69% | Brc1ccc(-c2nc(-c3ccccc3)n(Cc3ccccc3)n2)cc1 | 7.06 |
| – | 1010 | 142 | – | c1ccc(-c2n[nH]c(-c3ccccc3)n2)cc1 | – |
| 62% | 2360 | 903 | 69% | COc1cccc(-c2nc(-c3ccccc3)n(Cc3ccccc3)n2)c1 | 0.38 |
| 55% | 68 | 164 | 62% | Brc1ccc(-c2n[nH]c(-c3ccccc3)n2)cc1 | 2.41 |
| 53% | 351 | 228 | 62% | CC(=O)n1nc(-c2ccc(C)cc2)nc1-c1ccccc1 | 0.65 |
| 77% | 1990 | 1190 | 83% | Cn1nc(-c2ccc(Cl)cc2)nc1-c1ccccc1 | 0.6 |
| 62% | 85 | 77 | 73% | Cc1ccc(-c2n[nH]c(-c3ccccc3)n2)cc1 | 0.91 |
| – | 231 | 113 | – | CC(=O)n1nc(-c2ccc(Br)cc2)nc1-c1ccccc1 | – |
| inactive | 2570 | – | 73% | Clc1ccc(-c2n[nH]c(Cc3ccccc3)n2)cc1 | – |
| – | 640 | 526 | – | Clc1ccccc1-c1n[nH]c(-c2ccccc2)n1 | – |
| 60% | 68 | 108 | 72% | COc1cccc(-c2n[nH]c(-c3ccccc3)n2)c1 | 1.59 |
| inactive | – | – | inactive | CCn1nc(-c2ccccc2)nc1-c1ccccc1 | – |
| 52% | 493 | 390 | 67% | Brc1ccccc1-c1n[nH]c(-c2ccccc2)n1 | 0.79 |
| 75% | 259 | 1700 | 81% | Cc1ccc(S(=O)(=O)n2nc(-c3ccccc3)nc2-c2ccccc2)cc1 | 6.58 |
| inactive | – | – | inactive | CCCCn1nc(-c2ccc(Cl)cc2)nc1-c1ccccc1 | – |
| 65% | – | 2470 | inactive | CCCCn1nc(-c2ccccc2)nc1-c1ccccc1 | – |
| 53% | 6710 | 2130 | 61% | Clc1ccc(-c2nc(-c3ccccc3)n(Cc3ccccc3)n2)cc1 | 0.32 |
| – | 6150 | 2200 | – | c1ccc(Cc2nc(-c3ccccc3)n[nH]2)cc1 | 0.36 |
| 64% | 2640 | 2470 | 71% | Cn1nc(-c2ccccc2)nc1-c1ccccc1 | 0.94 |
| – | 232 | 396 | – | CC(=O)n1nc(-c2ccccc2)nc1-c1ccccc1 | – |
